Test results reported in ChEMBL document CHEMBL1201862, “PubChem BioAssay data set” (2004).
Structures can show the parent of a compound that is named as a salt.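 Five compound concentrations were applied to cells in 96-well plates for 48 hours; endpoints were derived by simple linear interpolation of the resulting dose-response curve. GI50 marks 50% less growth.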 Activity calls are given as the source filed them. Rule as the data show it: active = GI50 up to about 1.1 µM and inactive = higher.

Key:
Test in all cases: NCI tumour cell line growth inhibition, 48 h
NCI-H226 = tested on: NCI-H226
RXF 393 = tested on: RXF 393
SF-295 = tested on: SF-295
SK-OV-3 = tested on: SK-OV-3
HT-29 = tested on: HT-29
SF-268 = tested on: SF-268
KM12 = tested on: KM12
CAKI-1 = tested on: CAKI-1
786-0 = tested on: 786-0
A549 = tested on: A549
CCRF-CEM = tested on: CCRF-CEM
U-251 = tested on: U-251
UACC-257 = tested on: UACC-257
SNB-19 = tested on: SNB-19
IGROV-1 = tested on: IGROV-1
K562 = tested on: K562
NCI-H23 = tested on: NCI-H23
M14 = tested on: M14
SNB-75 = tested on: SNB-75
RPMI-8226 = tested on: RPMI-8226

Measured: GI50

CCCSc1cc(Cl)c(C)cc1S(=O)(=O)n1ccnc1OCCCN(C)C
inactive: NCI-H226 > 100 µM | RXF 393 > 100 µM | SF-295 > 100 µM | SK-OV-3 > 100 µM | HT-29 > 100 µM | SF-268 > 100 µM | KM12 > 100 µM | CAKI-1 > 100 µM | 786-0 > 100 µM | A549 > 100 µM | CCRF-CEM > 100 µM | U-251 > 100 µM | UACC-257 > 100 µM | SNB-19 > 100 µM | IGROV-1 > 100 µM | K562 > 100 µM | NCI-H23 > 100 µM | M14 > 100 µM

CN1CCc2cc(O)c3cc2C1Cc1ccc(cc1)Oc1cc(ccc1O)CC1c2c(cc4c(c2O3)OCO4)CCN1C (stereo unspecified)
inactive: NCI-H226 22.9 µM | RXF 393 11.2 µM | SF-295 21.5 µM | HT-29 21.2 µM | SF-268 33.1 µM | KM12 29.9 µM | 786-0 58.2 µM | A549 45.7 µM | CCRF-CEM 27.7 µM | U-251 30.1 µM | SNB-19 44.6 µM | IGROV-1 25.6 µM | K562 17.2 µM | NCI-H23 > 100 µM | SNB-75 13.4 µM | M14 16.8 µM

Nc1ccn(CC(CO)CC(c2ccccc2)P(=O)(O)O)c(=O)n1 (stereo unspecified)
inactive: NCI-H226 > 100 µM | RXF 393 > 100 µM | SF-295 > 100 µM | SK-OV-3 > 100 µM | HT-29 > 100 µM | SF-268 > 100 µM | KM12 > 100 µM | CAKI-1 > 100 µM | 786-0 > 100 µM | A549 > 100 µM | CCRF-CEM > 100 µM | UACC-257 > 100 µM | SNB-19 > 100 µM | IGROV-1 > 100 µM | K562 > 100 µM | NCI-H23 > 100 µM | RPMI-8226 > 100 µM | M14 > 100 µM

O=C1OC(c2ccccc2)=N/C1=C/NC(Cc1c[nH]c2ccccc12)C(=O)O (stereo unspecified)
inactive: NCI-H226 > 100 µM | RXF 393 > 100 µM | SF-295 > 100 µM | SK-OV-3 > 100 µM | HT-29 > 100 µM | SF-268 > 100 µM | 786-0 > 100 µM | A549 > 100 µM | CCRF-CEM > 100 µM | U-251 > 100 µM | UACC-257 > 100 µM | SNB-19 > 100 µM | IGROV-1 > 100 µM | K562 > 100 µM | NCI-H23 > 100 µM | RPMI-8226 > 100 µM | SNB-75 69.7 µM | M14 > 100 µM

O=C(CCc1nnc2s/c(=C\c3ccccc3Cl)c(=O)n12)Nc1cc(Cl)ccc1Cl
inactive: NCI-H226 > 100 µM | RXF 393 > 100 µM | SF-295 > 100 µM | SK-OV-3 > 100 µM | HT-29 > 100 µM | SF-268 > 100 µM | KM12 > 100 µM | CAKI-1 > 100 µM | 786-0 > 100 µM | A549 > 100 µM | CCRF-CEM > 100 µM | U-251 > 100 µM | UACC-257 > 100 µM | SNB-19 > 100 µM | IGROV-1 > 100 µM | K562 > 100 µM | NCI-H23 > 100 µM | RPMI-8226 > 100 µM | M14 > 100 µM

CNNCc1ccc(C(=O)NC(C)C)cc1 [PROCARBAZINE HYDROCHLORIDE]
inactive: NCI-H226 > 381 µM | RXF 393 > 423 µM | SF-295 > 500 µM | SK-OV-3 > 493 µM | HT-29 > 474 µM | SF-268 > 500 µM | KM12 > 500 µM | 786-0 254 µM | A549 335 µM | CCRF-CEM 461 µM | UACC-257 450 µM | SNB-19 > 500 µM | IGROV-1 > 404 µM | K562 410 µM | NCI-H23 > 500 µM | RPMI-8226 465 µM | SNB-75 435 µM | M14 > 500 µM

COc1ccc(-c2ccccc2)c(N/N=C2\CCCNC2=O)c1
inactive: NCI-H226 > 100 µM | RXF 393 11 µM | SF-295 > 100 µM | SK-OV-3 96.2 µM | HT-29 > 100 µM | SF-268 43.5 µM | KM12 > 100 µM | 786-0 85.7 µM | A549 12.9 µM | U-251 > 100 µM | UACC-257 > 100 µM | SNB-19 81.7 µM | IGROV-1 > 100 µM | NCI-H23 > 100 µM | RPMI-8226 > 100 µM | SNB-75 32.8 µM | M14 > 100 µM

CC1(C)C=Cc2c(cc3oc4ccc5c(c4c(=O)c3c2O)C=CC(C)(C)O5)O1
inactive: NCI-H226 > 100 µM | RXF 393 > 100 µM | SF-295 > 100 µM | SK-OV-3 > 100 µM | HT-29 > 100 µM | SF-268 > 100 µM | KM12 > 100 µM | CAKI-1 > 100 µM | 786-0 > 100 µM | A549 > 100 µM | CCRF-CEM > 100 µM | U-251 > 100 µM | UACC-257 > 100 µM | SNB-19 > 100 µM | IGROV-1 > 100 µM | NCI-H23 > 100 µM | RPMI-8226 > 100 µM | M14 > 100 µM

COc1ccc(/C=C2\Sc3nnc(CNc4ccc(Cl)cc4)n3N=C2c2cc(F)c(Cl)cc2Cl)cc1OC
inactive: NCI-H226 > 100 µM | RXF 393 15.8 µM | SF-295 > 100 µM | SK-OV-3 > 100 µM | HT-29 28.6 µM | SF-268 20.6 µM | KM12 83.8 µM | CAKI-1 23.6 µM | 786-0 24.5 µM | CCRF-CEM 4.97 µM | U-251 > 100 µM | UACC-257 > 100 µM | IGROV-1 > 100 µM | K562 19 µM | NCI-H23 28.1 µM | RPMI-8226 7.57 µM | M14 59.8 µM

Cc1ccc(S(=O)(=O)N2CCSCCSCCN(S(=O)(=O)c3ccc(C)cc3)CCN(S(=O)(=O)c3ccc(C)cc3)CC2)cc1
inactive: NCI-H226 > 100 µM | RXF 393 > 100 µM | SF-295 > 100 µM | SK-OV-3 > 100 µM | HT-29 > 100 µM | SF-268 > 100 µM | KM12 > 100 µM | CAKI-1 > 100 µM | 786-0 > 100 µM | A549 > 100 µM | CCRF-CEM > 100 µM | U-251 > 100 µM | UACC-257 > 100 µM | SNB-19 > 100 µM | IGROV-1 > 100 µM | K562 > 100 µM | NCI-H23 > 100 µM | RPMI-8226 > 100 µM | M14 > 100 µM

O=C(c1cc2ccccc2[nH]1)C(O)(c1cc2ccccc2[nH]1)c1cc2ccccc2[nH]1
inactive: NCI-H226 50.9 µM | RXF 393 > 246 µM | SF-295 154 µM | SK-OV-3 > 246 µM | HT-29 > 246 µM | SF-268 > 246 µM | KM12 > 246 µM | CAKI-1 > 246 µM | 786-0 > 246 µM | A549 > 246 µM | CCRF-CEM > 246 µM | U-251 > 246 µM | UACC-257 > 246 µM | SNB-19 > 246 µM | IGROV-1 > 246 µM | K562 > 246 µM | NCI-H23 112 µM | RPMI-8226 > 246 µM
